Here are results for 22 compounds from patent publication US20260116868A1 (Arcus Biosciences, Inc., priority 2023, published 2026).

A value given as a limit tells only on which side of the number the result lay.

This experiment has as its target T1, Cbl-b (Homo sapiens, UniProt Q13191).
T1 construct: biotin (biotinylated protein)
Briefly: Cbl-b probe displacement HTRF binding assay. The settings on record: 0.4 nM Cbl-b, 150 nM BODIPY probe. On the procedure: The affinity with which compounds of the present disclosure bind to Cbl-b was assessed using probe displacement homologous time resolved fluorescence (HTRF) assays. The assays used a BODIPY™ conjugated probe (Example 54 from WO 2020264398) and biotinylated Cbl-b. The assays were performed in assay buffer consisting of 20 mM Hepes, 150 mM NaCl, 0.01% Triton X-100, 0.5 mM TCEP, 0.01% BSA. On the day of the assay, a 20 point, 1:2 master serial dilution of each compound was prepared in DMSO to span a final concentration range of […] to 0 nM. Two hundred nanoliters of diluted compound was added to each well of a 384-well plate. Fifteen microliters of biotinylated- Cbl-b resuspended in assay buffer were added to each well and the plate incubated for 60 minutes at room temperature prior to addition of 5 μL of BODIPY™ probe in assay buffer. Final assay conditions included 0.4 nM of Cbl-b and 150 nM of BODIPY™ probe. After a further 15 minutes of incubation at room temperature, 5 μl of Streptavidin-Terbium cryptate reagent at 5-fold final concentration was added to each well of the 384-well plate. Binding of a probe to Cbl-b results in an increase of HTRF signal. HTRF signal was measured by Envision plate reader, while competition of a compound of the present disclosure with probe results in a decrease of signal. Percentage maximum activity in each test well was calculated based on DMSO (maximum activity, 0% displacement) and no protein control wells (baseline activity, 100% displacement). Binding affinity was determined from a dose response curve fitted using a standard four parameter fit equation. See Table 7 for data for compounds (Cbl-b Binding (IC50)).
(In general: TR-FRET usually uses a lanthanide donor and a delayed reading to cut background.)

T1 sequence (Q13191 whole entry, species assumed): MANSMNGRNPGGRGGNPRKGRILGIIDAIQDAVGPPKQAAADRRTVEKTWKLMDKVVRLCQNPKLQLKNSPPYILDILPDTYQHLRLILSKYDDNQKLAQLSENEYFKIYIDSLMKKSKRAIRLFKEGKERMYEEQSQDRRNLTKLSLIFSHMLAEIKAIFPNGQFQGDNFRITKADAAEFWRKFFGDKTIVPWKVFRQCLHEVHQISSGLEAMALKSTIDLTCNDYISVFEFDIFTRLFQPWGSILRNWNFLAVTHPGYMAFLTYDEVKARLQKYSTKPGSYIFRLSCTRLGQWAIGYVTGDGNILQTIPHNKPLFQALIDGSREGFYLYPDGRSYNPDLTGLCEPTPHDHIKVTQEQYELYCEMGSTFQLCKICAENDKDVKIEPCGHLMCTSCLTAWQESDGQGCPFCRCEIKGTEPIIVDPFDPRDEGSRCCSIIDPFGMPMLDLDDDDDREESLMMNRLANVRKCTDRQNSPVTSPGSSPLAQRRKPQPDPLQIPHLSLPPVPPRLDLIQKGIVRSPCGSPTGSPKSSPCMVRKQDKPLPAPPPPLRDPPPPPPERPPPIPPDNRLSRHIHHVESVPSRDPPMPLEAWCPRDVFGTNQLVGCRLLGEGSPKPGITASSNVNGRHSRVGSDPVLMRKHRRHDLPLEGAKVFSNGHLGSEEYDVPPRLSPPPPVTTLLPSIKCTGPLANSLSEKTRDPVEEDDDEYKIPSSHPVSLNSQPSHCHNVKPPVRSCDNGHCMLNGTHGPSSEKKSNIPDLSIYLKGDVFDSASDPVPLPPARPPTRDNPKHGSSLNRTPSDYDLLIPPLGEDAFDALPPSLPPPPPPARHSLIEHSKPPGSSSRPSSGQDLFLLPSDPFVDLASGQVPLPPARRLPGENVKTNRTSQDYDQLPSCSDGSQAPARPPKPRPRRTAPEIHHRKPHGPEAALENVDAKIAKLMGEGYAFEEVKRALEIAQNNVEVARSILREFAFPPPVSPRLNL

One may read the IC50 as the midpoint of a concentration-inhibition curve. In the case of `C=CCn1cc(CN2CCC[C@H](C)C2)cc(C(=O)Nc2cccc(C3(c4nncn4C)CC(C)C3)c2)c1=O` (mixture of isomers) [Example 77, N-[3-[3-methyl-1-(4-methyl-1,2,4-triazol-3-yl)cyclobutyl]phenyl]-5-[[(3S)-3-methylpiperidin-1-yl]methyl]-2-oxo-1-prop-2-enylpyridine-3-carboxamide], the IC50 was less than 100 nM.
Compound `CC(C)Oc1cc(-c2ccc(C#N)cc2C(=O)N2CC(F)(F)C2)cc(NC(=O)c2cc(CNC(C)C3CC3)cn(C3CC3)c2=O)n1` (stereo in doubt) [Example 140, N-(4-{4-cyano-2-[(3,3-difluoro-1-azetidinyl)carbonyl]phenyl}-6-isopropoxy-2-pyridyl)-1-cyclopropyl-5-{[(S)-1-cyclopropylethylamino]methyl}-2-oxo-1,2-dihydronicotinamide] returned an IC50 of less than 100 nM.
In the case of `CC(C)Oc1cc(-c2ccc(C#N)cc2C(=O)N2CC(F)(F)C2)cc(NC(=O)c2cc(CNC[C@@H]3CCCO3)cn(C3CC3)c2=O)n1` [Example 96, N-(4-{4-cyano-2-[(3,3-difluoro-1-azetidinyl)carbonyl]phenyl}-6-isopropoxy-2-pyridyl)-5-[({[(S)-tetrahydro-2-furyl]methyl}amino)methyl]-1-cyclopropyl-2-oxo-1,2-dihydronicotinamide], the IC50 was less than 100 nM.
For `CC(C)CNCc1cc(C(=O)Nc2cc(-c3ccc(C#N)cc3C(=O)N3CC(F)(F)C3)cc(OC(C)C)n2)c(=O)n(C2CC2)c1` [Example 97, N-(4-{4-cyano-2-[(3,3-difluoro-1-azetidinyl)carbonyl]phenyl}-6-isopropoxy-2-pyridyl)-1-cyclopropyl-5-[(isobutylamino)methyl]-2-oxo-1,2-dihydronicotinamide] the value was less than 100 nM; for `CC(C)Oc1cc(-c2ccc(OC(F)F)cc2C(=O)N2CC(F)(F)C2)cc(NC(=O)c2cc(CN[C@@H](C)C3CCC3)cn(C3CC3)c2=O)n1` [Example 98], less than 100 nM.
For `CC(C)CNCc1cc(C(=O)Nc2cc(-c3ccc(OC(F)F)cc3C(=O)N3CC(F)(F)C3)cc(OC(C)C)n2)c(=O)n(C2CC2)c1` [Example 99, N-(4-{2-[(3,3-difluoro-1-azetidinyl)carbonyl]-4-difluoromethoxyphenyl}-6-isopropoxy-2-pyridyl)-1-cyclopropyl-5-[(isobutylamino)methyl]-2-oxo-1,2-dihydronicotinamide] the value was less than 100 nM.
Take `CC(C)Oc1cc(-c2ccc(C#N)cc2C(=O)N2CC(F)(F)C2)cc(NC(=O)c2cc(CN[C@@H](C)C3CCC3)cn(C)c2=O)n1` [Example 100, N-[4-[4-cyano-2-(3,3-difluoroazetidine-1-carbonyl)phenyl]-6-propan-2-yloxypyridin-2-yl]-5-[[[(1S)-1-cyclobutylethyl]amino]methyl]-1-methyl-2-oxopyridine-3-carboxamide]: the IC50 is less than 100 nM.
In the case of `CC(C)Oc1cc(-c2c(F)cc(C#N)cc2C(=O)N2CC(F)(F)C2)cc(NC(=O)c2cc(CNC[C@@H]3CCCO3)cn(C3CC3)c2=O)n1` [Example 101, N-[4-[4-cyano-2-(3,3-difluoroazetidine-1-carbonyl)-6-fluorophenyl]-6-propan-2-yloxypyridin-2-yl]-1-cyclopropyl-2-oxo-5-[[[(2S)-oxolan-2-yl]methylamino]methyl]pyridine-3-carboxamide] it was less than 100 nM; in that of `CCNc1cc(-c2ccc(OC(F)F)cc2C(=O)N2CC(F)C2)cc(NC(=O)c2cc(CN[C@@H](C)C3CCC3)cn(C)c2=O)n1` [Example 103], less than 100 nM; in that of `CCOc1cc(-c2ccc(OC(F)F)cc2C(=O)N2CC(F)C2)cc(NC(=O)c2cc(CNC[C@H](C)OC)cn(C3CC3)c2=O)n1` [Example 104, N-(4-{4-Difluoromethoxy-2-[(3-fluoro-1-azetidinyl)carbonyl]phenyl}-6-ethoxy-2-pyridyl)-5-{[(S)-2-methoxypropylamino]methyl}-1-cyclopropyl-2-oxo-1,2-dihydronicotinamide], less than 100 nM.
In the case of `Cn1cc(CNC[C@@H]2CCCCO2)cc(C(=O)Nc2cc(-c3ccc(Cl)cc3C(=O)N3CC(F)(F)C3)cc(C3CC3)n2)c1=O` [Example 108, N-[4-[4-chloro-2-(3,3-difluoroazetidine-1-carbonyl)phenyl]-6-cyclopropylpyridin-2-yl]-1-methyl-5-[[[(2S)-oxan-2-yl]methylamino]methyl]-2-oxopyridine-3-carboxamide] it was less than 100 nM; in that of `CC(C)CNCc1cc(C(=O)Nc2cc(-c3ccc(OC(F)F)cc3C(=O)N3CC(F)(F)C3)cc(C3CC3)n2)c(=O)n(C)c1` [Example 109, N-[6-cyclopropyl-4-[2-(3,3-difluoroazetidine-1-carbonyl)-4-(difluoromethoxy)phenyl]pyridin-2-yl]-1-methyl-5-[(2-methylpropylamino)methyl]-2-oxopyridine-3-carboxamide], less than 100 nM.
In the case of `Cn1cc(CNC[C@@H]2COCCO2)cc(C(=O)Nc2cc(-c3ccc(OC(F)F)cc3C(=O)N3CC(F)(F)C3)cc(C3CC3)n2)c1=O` [Example 110, N-(6-cyclopropyl-4-{2-[(3,3-difluoro-1-azetidinyl)carbonyl]-4-difluoromethoxyphenyl}-2-pyridyl)-5-[({[(R)-1,4-dioxan-2-yl]methyl}amino)methyl]-1-methyl-2-oxo-1,2-dihydronicotinamide] it was less than 100 nM; in that of `Cn1cc(CNC[C@@H]2CCCCO2)cc(C(=O)Nc2cc(-c3ccc(OC(F)F)cc3C(=O)N3CC(F)(F)C3)cc(C3CC3)n2)c1=O` [Example 111, N-[6-cyclopropyl-4-[2-(3,3-difluoroazetidine-1-carbonyl)-4-(difluoromethoxy)phenyl]pyridin-2-yl]-1-methyl-5-[[[(2S)-oxan-2-yl]methylamino]methyl]-2-oxopyridine-3-carboxamide], less than 100 nM; in that of `CC(C)Oc1cc(-c2ccc(OC(F)F)cc2C(=O)N2CC(F)(F)C2)cc(NC(=O)c2cc(CN[C@@H](C)C3CCC3)cn(C)c2=O)n1` [Example 112], less than 100 nM.
In the case of `CO[C@@H](C)CNCc1cc(C(=O)Nc2cc(-c3ccc(OC(F)F)cc3C(=O)N3CC(F)(F)C3)cc(OC(C)C)n2)c(=O)n(C)c1` [Example 113, N-(4-{2-[(3,3-difluoro-1-azetidinyl)carbonyl]-4-difluoromethoxyphenyl}-6-isopropoxy-2-pyridyl)-5-{[(S)-2-methoxypropylamino]methyl}-1-methyl-2-oxo-1,2-dihydronicotinamide], the IC50 was less than 100 nM.
In the case of `CC(C)Oc1cc(-c2ccc(OC(F)F)cc2C(=O)N2CC(F)(F)C2)cc(NC(=O)c2cc(CN[C@@H](C)C(C)C)cn(C)c2=O)n1` [Example 114] it was less than 100 nM; in that of `CC(C)Oc1cc(-c2ccc(OC(F)F)cc2C(=O)N2CC(F)(F)C2)cc(NC(=O)c2cc(CN[C@@H](C)C3CC3)cn(C)c2=O)n1` [Example 115, N-(4-{2-[(3,3-difluoro-1-azetidinyl)carbonyl]-4-difluoromethoxyphenyl}-6-isopropoxy-2-pyridyl)-5-{[(S)-1-cyclopropylethylamino]methyl}-1-methyl-2-oxo-1,2-dihydronicotinamide], less than 100 nM; in that of `CO[C@@H](C)[C@H](C)NCc1cc(C(=O)Nc2cc(-c3ccc(OC(F)F)cc3C(=O)N3CC(F)(F)C3)cc(OC(C)C)n2)c(=O)n(C)c1` [Example 116, N-(4-{2-[(3,3-difluoro-1-azetidinyl)carbonyl]-4-difluoromethoxyphenyl}-6-isopropoxy-2-pyridyl)-5-{[(1S,2S)-2-methoxy-1-methylpropylamino]methyl}-1-methyl-2-oxo-1,2-dihydronicotinamide], less than 100 nM.
In the case of `CO[C@@H](C)CNCc1cc(C(=O)Nc2cc(-c3ccc(C#N)cc3C(=O)N3CC(F)(F)C3)cc(OC(C)C)n2)c(=O)n(C)c1` [Example 117, N-(4-{4-cyano-2-[(3,3-difluoro-1-azetidinyl)carbonyl]phenyl}-6-isopropoxy-2-pyridyl)-5-{[(S)-2-methoxypropylamino]methyl}-1-methyl-2-oxo-1,2-dihydronicotinamide] it was less than 100 nM; in that of `CCOc1cc(-c2c(F)cc(C#N)cc2C(=O)N2CC(F)(F)C2)cc(NC(=O)c2cc(CNC[C@@H]3CCCO3)cn(C)c2=O)n1` [Example 118, N-[4-[4-cyano-2-(3,3-difluoroazetidine-1-carbonyl)-6-fluorophenyl]-6-ethoxypyridin-2-yl]-1-methyl-2-oxo-5-[[[(2S)-oxolan-2-yl]methylamino]methyl]pyridine-3-carboxamide], less than 100 nM.
For `CCOc1cc(-c2c(F)cc(C#N)cc2C(=O)N2CC(F)(F)C2)cc(NC(=O)c2cc(CN[C@@H](C)C3CC3)cn(C)c2=O)n1` [Example 119, N-[4-[4-cyano-2-(3,3-difluoroazetidine-1-carbonyl)-6-fluorophenyl]-6-ethoxypyridin-2-yl]-5-[[[(1S)-1-cyclopropylethyl]amino]methyl]-1-methyl-2-oxopyridine-3-carboxamide] the value was less than 100 nM.
